Key:
pigweed (AMARE) = assay: Postemergence greenhouse trial, % visual injury on pigweed; format: in vivo, Amaranthus retroflexus; details: for % visual injury, observed (Ob): AMARE
Procedure, shortened: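 Postemergence greenhouse spray (187 L/ha, 1.5% v/v Agri-dex in water, acetone/DMSO stocks) on plants at second–third true leaf stage, ~23/22 °C, 14 h photoperiod; herbicides in g ae/ha, safener cloquintocet-mexyl in g ai/ha. Visual injury 0–100% versus solvent-blank controls after 20–22 d; Colby's equation gave expected mixture effects.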

winter rape (BRSNW) = assay: Postemergence greenhouse trial, % visual injury on winter rape; format: in vivo, Brassica napus; details: for % visual injury, observed (Ob): BRSNW
Procedure, shortened: (§1)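 Plants at second or third true leaf stage, greenhouse-grown (14 h photoperiod, ~23/22° C.), sprayed postemergence with compounds alone or with safener cloquintocet-mexyl in 1.5% v/v Agri-dex crop oil at 187 L/ha. Visual injury scored 0–100% versus solvent-blank controls after 20-22 d; expected mixture effects by Colby's equation.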

thistle (CIRAR) = assay: Postemergence greenhouse trial, % visual injury on thistle; format: in vivo, Cirsium arvense; details: for % visual injury, observed (Ob): CIRAR
Procedure, shortened: as §1

kochia (KCHSC) = assay: Postemergence greenhouse trial, % visual injury on kochia; format: in vivo, Kochia scoparia; details: for % visual injury, observed (Ob): KCHSC
Procedure, shortened: (§2)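 Herbicide rates g ae/ha, safener (cloquintocet-mexyl) rates g ai/ha; spray carrier 1.5% v/v crop oil concentrate, 187 L/ha, 2nd–3rd leaf stage. Rating: visual % injury at 20-22 d.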

common poppy (PAPRH) = assay: Postemergence greenhouse trial, % visual injury on common poppy; format: in vivo, Papaver rhoeas; details: for % visual injury, observed (Ob): PAPRH
Procedure, shortened: as §2

wild mustard (SINAR) = assay: Postemergence greenhouse trial, % visual injury on wild mustard; format: in vivo, Sinapis arvensis; details: for % visual injury, observed (Ob): SINAR
Procedure, shortened: as §2

[1] = system: bird's-eye speedwell (VERPE); assay: Postemergence greenhouse trial, % visual injury on bird's-eye speedwell; format: in vivo, Veronica persica; details: for % visual injury, Ob: alone; for % visual injury, observed (Ob): VERPE
Procedure, shortened: as §2

[2] = Amaranthus retroflexus, post-emergence, alone, 35 g/ha, read-out: % visual injury, Ob
[3] = Brassica napus, post-emergence, alone, read-out: % visual injury, Ob
[4] = Cirsium arvense, post-emergence, alone, read-out: % visual injury, Ob
[5] = compound 2 4.380 + CQC-m 0 g/ha

Nc1c(F)c(-c2ccc3cc[nH]c3c2F)nc(C(=O)O)c1Cl [compound 1]
% visual injury, observed (Ob) (pigweed (AMARE); compound 1 alone 20 g/ha): 100%
% visual injury, observed (Ob) (pigweed (AMARE); compound 1 alone 40 g/ha): 100%
pest or weed control at 4.375 g/ha (pigweed (AMARE); Amaranthus retroflexus, post-emergence, alone, 4.375 g/ha, read-out: % visual injury, Ob): 81%
pest or weed control at 8.75 g/ha (pigweed (AMARE); Amaranthus retroflexus, post-emergence, alone, 8.75 g/ha, read-out: % visual injury, Ob): 91%
pest or weed control at 17.5 g/ha (pigweed (AMARE); Amaranthus retroflexus, post-emergence, alone, 17.5 g/ha, read-out: % visual injury, Ob): 99%
pest or weed control at 35 g/ha (pigweed (AMARE); [2]): 100%
pest or weed control at 70 g/ha (pigweed (AMARE); Amaranthus retroflexus, post-emergence, alone, 70 g/ha, read-out: % visual injury, Ob): 100%
% visual injury, Δ (pigweed (AMARE); alone, 35 g/ha): 0%
plant injury at 4.375 g/ha (winter rape (BRSNW); Brassica napus, post-emergence, alone, 4.375 g/ha, read-out: % visual injury, Ob): 79%
plant injury at 8.75 g/ha (winter rape (BRSNW); Brassica napus, post-emergence, alone, 8.75 g/ha, read-out: % visual injury, Ob): 84%
plant injury at 17.5 g/ha (winter rape (BRSNW); Brassica napus, post-emergence, alone, 17.5 g/ha, read-out: % visual injury, Ob): 96%
plant injury at 35 g/ha (winter rape (BRSNW); [3]): 99%
plant injury at 70 g/ha (winter rape (BRSNW); Brassica napus, post-emergence, alone, 70 g/ha, read-out: % visual injury, Ob): 100%
pest or weed control at 4.375 g/ha (thistle (CIRAR); Cirsium arvense, post-emergence, alone, 4.375 g/ha, read-out: % visual injury, Ob): 35%
pest or weed control at 8.75 g/ha (thistle (CIRAR); Cirsium arvense, post-emergence, alone, 8.75 g/ha, read-out: % visual injury, Ob): 62%
pest or weed control at 17.5 g/ha (thistle (CIRAR); Cirsium arvense, post-emergence, alone, 17.5 g/ha, read-out: % visual injury, Ob): 80%
pest or weed control at 35 g/ha (thistle (CIRAR); [4]): 90%
pest or weed control at 70 g/ha (thistle (CIRAR); Cirsium arvense, post-emergence, alone, 70 g/ha, read-out: % visual injury, Ob): 96%
pest or weed control at 4.375 g/ha (kochia (KCHSC); Bassia scoparia, post-emergence, alone, 4.375 g/ha, read-out: % visual injury, Ob): 67%
pest or weed control at 8.75 g/ha (kochia (KCHSC); Bassia scoparia, post-emergence, alone, 8.75 g/ha, read-out: % visual injury, Ob): 72%
pest or weed control at 17.5 g/ha (kochia (KCHSC); Bassia scoparia, post-emergence, alone, 17.5 g/ha, read-out: % visual injury, Ob): 93%
pest or weed control at 35 g/ha (kochia (KCHSC); Bassia scoparia, post-emergence, alone, 35 g/ha, read-out: % visual injury, Ob): 92%
pest or weed control at 70 g/ha (kochia (KCHSC); Bassia scoparia, post-emergence, alone, 70 g/ha, read-out: % visual injury, Ob): 97%
pest or weed control at 4.375 g/ha (common poppy (PAPRH); Papaver rhoeas, post-emergence, alone, 4.375 g/ha, read-out: % visual injury, Ob): 97%
pest or weed control at 8.75 g/ha (common poppy (PAPRH); Papaver rhoeas, post-emergence, alone, 8.75 g/ha, read-out: % visual injury, Ob): 99%
pest or weed control at 17.5 g/ha (common poppy (PAPRH); Papaver rhoeas, post-emergence, alone, 17.5 g/ha, read-out: % visual injury, Ob): 100%
pest or weed control at 35 g/ha (common poppy (PAPRH); Papaver rhoeas, post-emergence, alone, 35 g/ha, read-out: % visual injury, Ob): 100%
pest or weed control at 70 g/ha (common poppy (PAPRH); Papaver rhoeas, post-emergence, alone, 70 g/ha, read-out: % visual injury, Ob): 100%
pest or weed control at 4.375 g/ha (wild mustard (SINAR); Brassica, post-emergence, alone, 4.375 g/ha, read-out: % visual injury, Ob): 85%
pest or weed control at 8.75 g/ha (wild mustard (SINAR); Brassica, post-emergence, alone, 8.75 g/ha, read-out: % visual injury, Ob): 88%
pest or weed control at 17.5 g/ha (wild mustard (SINAR); Brassica, post-emergence, alone, 17.5 g/ha, read-out: % visual injury, Ob): 98%
pest or weed control at 35 g/ha (wild mustard (SINAR); Brassica, post-emergence, alone, 35 g/ha, read-out: % visual injury, Ob): 99%
pest or weed control at 70 g/ha (wild mustard (SINAR); Brassica, post-emergence, alone, 70 g/ha, read-out: % visual injury, Ob): 100%
% visual injury, Ob ([1]; 4.375 g/ha): 93%
% visual injury, Ob ([1]; 8.75 g/ha): 95%
% visual injury, Ob ([1]; 17.5 g/ha): 98%
% visual injury, Ob ([1]; 35 g/ha): 99%
% visual injury, Ob ([1]; 70 g/ha): 99%

Nc1c(F)c(-c2ccc3cc[nH]c3c2F)nc(C(=O)OCc2ccccc2)c1Cl [compound 2]
% visual injury, observed (Ob) (pigweed (AMARE); [5]): 80%
% visual injury, observed (Ob) (pigweed (AMARE); compound 2 8.75 + CQC-m 0 g/ha): 95%
% visual injury, observed (Ob) (pigweed (AMARE); compound 2 17.5 + CQC-m 0 g/ha): 100%
pest or weed control at 35 g/ha (pigweed (AMARE); [2]): 100%
% visual injury, observed (Ob) (winter rape (BRSNW); [5]): 84%
% visual injury, observed (Ob) (winter rape (BRSNW); compound 2 8.75 + CQC-m 0 g/ha): 88%
% visual injury, observed (Ob) (winter rape (BRSNW); compound 2 17.5 + CQC-m 0 g/ha): 55%
% visual injury, observed (Ob) (winter rape (BRSNW); compound 2 35 + CQC-m 0 g/ha): 100%
% visual injury, observed (Ob) (winter rape (BRSNW); compound 2 70 + CQC-m 0 g/ha): 100%
plant injury at 35 g/ha (winter rape (BRSNW); [3]): 100%
% visual injury, observed (Ob) (thistle (CIRAR); [5]): 35%
% visual injury, observed (Ob) (thistle (CIRAR); compound 2 8.75 + CQC-m 0 g/ha): 63%
% visual injury, observed (Ob) (thistle (CIRAR); compound 2 17.5 + CQC-m 0 g/ha): 80%
% visual injury, observed (Ob) (thistle (CIRAR); compound 2 35 + CQC-m 0 g/ha): 99%
% visual injury, observed (Ob) (thistle (CIRAR); compound 2 70 + CQC-m 0 g/ha): 99%
pest or weed control at 35 g/ha (thistle (CIRAR); [4]): 70%
% visual injury, observed (Ob) (kochia (KCHSC); [5]): 93%
% visual injury, observed (Ob) (kochia (KCHSC); compound 2 8.75 + CQC-m 0 g/ha): 95%
% visual injury, observed (Ob) (kochia (KCHSC); compound 2 17.5 + CQC-m 0 g/ha): 98%
% visual injury, observed (Ob) (kochia (KCHSC); compound 2 35 + CQC-m 0 g/ha): 99%
% visual injury, observed (Ob) (kochia (KCHSC); compound 2 70 + CQC-m 0 g/ha): 100%
% visual injury, observed (Ob) (kochia (KCHSC); compound 2 140 + CQC-m 0 g/ha): 95%
% visual injury, observed (Ob) (common poppy (PAPRH); [5]): 93%
% visual injury, observed (Ob) (common poppy (PAPRH); compound 2 8.75 + CQC-m 0 g/ha): 100%
% visual injury, observed (Ob) (common poppy (PAPRH); compound 2 17.5 + CQC-m 0 g/ha): 100%
% visual injury, observed (Ob) (common poppy (PAPRH); compound 2 35 + CQC-m 0 g/ha): 100%
% visual injury, observed (Ob) (common poppy (PAPRH); compound 2 70 + CQC-m 0 g/ha): 100%
% visual injury, observed (Ob) (wild mustard (SINAR); [5]): 94%
% visual injury, observed (Ob) (wild mustard (SINAR); compound 2 8.75 + CQC-m 0 g/ha): 95%
% visual injury, observed (Ob) (wild mustard (SINAR); compound 2 17.5 + CQC-m 0 g/ha): 99%
% visual injury, observed (Ob) (wild mustard (SINAR); compound 2 35 + CQC-m 0 g/ha): 100%
% visual injury, observed (Ob) (wild mustard (SINAR); compound 2 70 + CQC-m 0 g/ha): 100%
% visual injury, observed (Ob) [1, 5]: 75%
% visual injury, observed (Ob) ([1]; compound 2 8.75 + CQC-m 0 g/ha): 95%
% visual injury, observed (Ob) ([1]; compound 2 17.5 + CQC-m 0 g/ha): 100%
% visual injury, observed (Ob) ([1]; compound 2 35 + CQC-m 0 g/ha): 100%
% visual injury, observed (Ob) ([1]; compound 2 70 + CQC-m 0 g/ha): 100%

Reference: patent publication US9763445B2, “Safened herbicidal compositions comprising a pyridine carboxylic acid herbicide” (Dow AgroSciences, LLC, priority 2014, dated 2017)
